The values below come from US5110808A, “Amide derivatives, compositions and use” (Imperial Chemical Industries, PLC, priority 1990, dated 1992).

Each structure is given as a SMILES string.

Experiment [1] relates to aldose reductase. Kind of experiment: Reduction of sciatic nerve sorbitol in streptozotocin-diabetic rats (inhibition of aldose reductase in vivo). Details: species or system rat. As to conditions: after 5 daily oral doses of 3 mg/kg. As for the experimental part: Rats are made diabetic (as evidenced by severe glucosuria being present) by dosing with streptozotocin. The animals are then dosed daily with the test compound for one, two or five days. The animals are then sacrificed 2-6 hours after the final dose and the eye lenses and/or sciatic nerves are removed. After a standard work-up procedure the residual sorbitol levels in each tissue are determined by gas liquid chromatography after conversion to the polytrimethylsilyl derivatives. Inhibition of aldose reductase in vivo can then be assessed by comparing the residual sorbitol levels in tissues from the dosed diabetic group of rats with those of an undosed group of diabetic rats and an undosed, normal group of rats.
In a variation of the above test diabetic rats are dosed at a fixed daily oral dose for five days and then sacrificed 6 hours aftre the final dose and the reduction of sciatic nerve sorbitol assessed relative to that in control animals.

The target in experiment [2] is T1, aldose reductase (Bos taurus, UniProt P16116).
T1 construct: partially purified aldose reductase is isolated in known manner from bovine lenses; from tissue; host or cells: bovine lens
Briefly: In vitro inhibition of partially purified aldose reductase from bovine lenses, spectrophotometric. Format: biochemical. From the text: Thus, in a standard procedure partially purified aldose reductase is isolated in known manner from bovine lenses. The percentage inhibition of this enzyme's ability in vitro to catalyse the reduction of aldoses to polyhydric alcohols, and particularly to reduce glucose to sorbitol, caused by a test compound can then be determined using standard spectrophotometric methods.

`Cc1cc(NC(=O)C(=O)N(C(C)C)C(C)C)cc(C)c1S(=O)(=O)C[N+](=O)[O-]` [Example 2, N,N-di-isopropyl-N'-[3,5-dimethyl-4-(nitromethylsulfonyl)phenyl]oxamide]: the “reduction in sciatic nerve sorbitol levels” value in experiment [1] was found to be 82%. Also, the half-maximal inhibitory concentration (IC50) in experiment [2] is roughly 60 nM.

What is called IC50 is the concentration at which inhibition is half-maximal. Read a low IC50 as inhibition by little substance.
